Experimental data: patent publication US20260008775A1, “AZOLE MODULATORS OF CHOLESTEROL BIOSYNTHESIS AND THEIR USE FOR PROMOTING REMYELINATION” (GENENTECH, INC., priority 2022, published 2026)

Columns and labels:
[1] = tested on: zymostenol accumulation (EBP) in EpiSC-derived OPCs; test: GC/MS-based sterol profiling, zymostenol accumulation in EpiSC-derived OPCs; assay type: cell-based, mouse; settings: for EC50: Mus musculus, 24 h, EpiSC-derived OPCs, 24 hr, 8 doses from 0.15 nM to 333 nM, read-out: Mouse Zymostenol GCMS EC50
How it was run: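 Mouse epiblast stem cell-derived OPCs plated at 100,000 cells/well in growth-factor-free N2B27 and treated 24 h. Sterols extracted by modified Folch wash, silylated with BSTFA, and quantified by electron-impact GC/MS against cholesterol-d7 (zymostenol ion 458). Zymostenol normalised to 24 h 100 nM positive-control reference.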

[2] = biological target: human emopamil binding protein and human 7-dehydrocholesterol reductase (hEBP-DHCR7) (Homo sapiens (Human), UniProt Q15125); test: hEBP-DHCR7 radioligand binding assay (filter binding, membranes of co-expressing HEK293 cells); settings: for Ki: competition with [3H] radioligand, 8 doses 0.06 to 5000 nM, Ki calculated from IC50
Sequence of human emopamil binding protein and human 7-dehydrocholesterol reductase (hEBP-DHCR7) (Q15125 whole entry): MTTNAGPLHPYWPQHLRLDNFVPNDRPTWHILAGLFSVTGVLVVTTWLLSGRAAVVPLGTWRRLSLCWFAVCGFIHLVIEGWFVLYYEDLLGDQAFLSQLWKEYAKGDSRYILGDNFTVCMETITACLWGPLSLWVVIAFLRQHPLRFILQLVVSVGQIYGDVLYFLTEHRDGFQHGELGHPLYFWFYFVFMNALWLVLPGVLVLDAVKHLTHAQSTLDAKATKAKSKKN
How it was run: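 Membranes from HEK293 cells transiently co-expressing hEBP and DHCR7 (10 μg/well) were incubated for 3 h at 22 °C with tritiated spiro-sulfone radioligand (added at 25 nM) and compound at 1 μM or 0.06–5000 nM. Filtration and scintillation counting followed. Inhibition was normalised to 5 μM unlabelled ligand and DMSO, and Ki was derived as IC50/(1+[L]/Kd).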

EpiSC-derived OPCs = test: In vitro phenotypic screening of OPCs, MBP high-content imaging (percentage of oligodendrocytes); assay type: cell-based, mouse; settings: for EC50: Mus musculus, 72 h, 3 days, MBP stain, dose-response 0.5 nM to 1000 nM, read-out: OPC EC50
How it was run: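 Mouse epiblast stem cell-derived OPCs were plated without growth factors and given 8-point doses (1000 nM to 0.5 nM, 0.1% DMSO final) for 3 days at 37 °C. MBP/DAPI immunostaining and high-content imaging gave the percentage of oligodendrocytes. EC50 came from a Hill-equation fit.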

Row | SMILES | EC50 [1] [nM] | Ki [2] [nM] | EC50 (EpiSC-derived OPCs) [nM] | fold decrease in activity in the mouse zymostenol assay ([1]; as compared to compound 202) [fold] | fold decrease in EBP inhibition ([2]; as compared to compound 202 (no amine group on Ring B)) [fold] | fold decrease in activity in the OPC assay (EpiSC-derived OPCs; as compared to compound 202) [fold]
1 | CC(C)n1nc(-c2cnc(C(F)(F)F)nc2)nc1[C@H]1[C@@H]2C[C@H](N3CCOC[C@H]3C)C[C@@H]21 [Compound 204, (R)-4-((1R,3r,5S,6r)-6-(1-isopropyl-3-(2-(trifluoromethyl)pyrimidin-5-yl)-1H-1,2,4-triazol-5-yl)bicyclo[3.1.0]hexan-3-yl)-3-methylmorpholine] | 2.07 | 16 | 6 |  |  | 
2 | CC(C)n1nc(-c2cnc(N)c(C(F)(F)F)c2)cc1[C@H]1[C@@H]2C[C@@H](N3CCOCC3)C[C@@H]21 [Compound A, reference compound] | 1400 | 3670 | 3000 | 5.9 | 19.5 | 4.1
